In article PMC7061341, “Detection of the in vitro modulation of Plasmodium falciparum Arf1 by Sec7 and ArfGAP domains using a colorimetric plate-based assay” (Scientific Reports, 2020):
pIC50: −log10 of the molar value.

Experiments:
PfArfGAP1 = target: T1, PfArfGAP1 (Plasmodium falciparum, UniProt Q8I4Y5); experiment: plate-based GST-GGA3 GAT binding GAP assay; confirmed by tryptophan fluorescence; format: biochemical
T1 construct: gene PF3D7_1244600; GAP domain, amino acids 1–161; with PfArf1 (NΔ17, GTP-loaded)

ARNO = target: T2, ARNO (Homo sapiens, UniProt Q99418); experiment: plate-based GST-GGA3 GAT binding nucleotide exchange assay, […] compound; format: biochemical
T2 construct: gene CYTH2; Sec7 domain, amino acids 51–253; with Arf1 (NΔ17HsArf1 or NΔ17PfArf1, GDP-loaded)
T2 sequence (Q99418 51-253): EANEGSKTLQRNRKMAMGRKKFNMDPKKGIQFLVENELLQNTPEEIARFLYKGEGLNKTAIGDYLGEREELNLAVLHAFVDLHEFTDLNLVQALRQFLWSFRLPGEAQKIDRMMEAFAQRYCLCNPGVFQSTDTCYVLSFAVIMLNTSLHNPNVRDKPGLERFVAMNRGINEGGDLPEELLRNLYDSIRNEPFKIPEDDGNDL
T2 sequence (P84077 18-181 partner): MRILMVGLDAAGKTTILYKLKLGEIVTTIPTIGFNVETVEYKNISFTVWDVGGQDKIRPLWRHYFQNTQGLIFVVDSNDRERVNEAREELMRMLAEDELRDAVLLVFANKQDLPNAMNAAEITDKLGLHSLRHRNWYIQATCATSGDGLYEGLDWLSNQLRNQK

[1] = target: ^NΔ17PfArf1 (His-tagged P. falciparum Arf1 minus the N-terminal 17 amino acids) (Plasmodium falciparum) (UniProt Q7KQL3)

Compound: CC1(C(=O)Nc2cccc3cccnc23)CCN1C(=O)CCC1CCCC1 (stereo not drawn) [Chem1099]
- pIC50 (PfArfGAP1): 5.33

Compound: SecinH3
- % inhibition at 50 μM (ARNO): 93

Compound: PfArfGAP1^GAP (putative GAP domain of P. falciparum ArfGAP1) (domain or fragment)
- half-maximal GAP activity (EC50): deactivation of 1 µM ^NΔ17PfArf1-GTP by three-fold serial dilutions (0.5–0.002 µM) of the GAP domain, read by the GST-GGA3^GAT binding assay [1]: 21 nM
